According to US9617311B2, “Use of PEDF-derived polypeptides for promoting stem cells proliferation and wound healing” (Mackay Memorial Hospital, priority 2011, dated 2017):

Key:
[1] = tested on: full-thickness skin excisional wounds; test: Skin wound healing in mice, histology with Masson's trichrome; assay type: in vivo, C57L/B6 mice; conditions: for area of GT (granulation tissue), folds over the control group / area of HE tissue, folds over that of the control group / residual epithelial defect, Masson's trichrome sections: day 4 after trauma; for area of GT (granulation tissue), folds over the control group / area of HE tissue, folds over that of the control group: edge of the wound; for residual epithelial defect, Masson's trichrome sections: sections of the middle of the wounds, control 63.8±5.8%; for residual epithelial defects, Masson's trichrome sections: day 7 after trauma, control ointment 43.5±6.5%
Excerpt: FIGS. 7A to 7E provide quantification of wound healing at day 4. […] Arrowheads (▾) and arrows (↓) denote initial wound margins and the foremost tips of the hyperproliferative epithelium (HE; red color), respectively. Data are representative of 10-16 wounds (2 wounds per mouse) in each group. *P<0.02 versus control wound. FIG. 7B is a histogram illustrating the residual epithelial defect (%) in mice from each treatment group; only sections of the middle of the wounds were used for quantification. Data are shown as mean±SE. FIG. 7C provides representative photographs of wound edge. GT: granulation tissue (blue color); Es: eschar (deep-red). […] FIGS. 7D and 7E are histograms providing quantifications of the areas of HE and GT using Adobe Photoshop CS3 10.0. *P<0.02 versus control wound.
FIGS. 8A and 8B provide quantification of wound healing at day 7. […] Arrowheads (▾) and arrows (↓) denote initial wound margins and the foremost tips of the hyperproliferative epithelium, respectively. FIG. 8B is a histogram illustrating the residual epithelial defect (%) in mice from each treatment group; only sections of the middle of the wounds were used for quantification. Data are shown as mean±SE. *P<0.05 versus control wound.
(§1) To perform full-thickness skin excision, 8- to 10-week-old C57L/B6 mice were respectively anesthetized by an intraperitoneal injection of a mixture of zoletil (6 mg/kg) and xylazine (3 mg/kg). Two full-thickness skin excisional wounds, 4 mm in diameter were made on either side of the dorsal midline using Sklar Tru-Punch disposable biopsy punch (Sklar, West Chester, Pa., USA). In each treatment group (n=6), the skin wound was treated with 25 μl skin ointment (containing 50 μM synthetic peptide and 0.006 μl DMSO vehicle) once daily after the skin scraping. In the control group (n=6), skin wound was treated with 25 μl of skin ointment with equal concentration of DMSO. Each gram of the above skin ointment contains 5 mg neomycin sulfate and 12.5 mg Bacitracin Zinc. Wounds were left uncovered and harvested 4 and 7 days after injury. Mice were housed individually during the healing period.
For histological analysis the complete wounds including 2 mm of the epithelial margins was isolated, bisected, fixed overnight in 4% PFA in PBS, and embedded in paraffin. Sections (5 μm) from the middle of the wound were stained using the Masson's trichrome procedure as described by the manufacturer, in which the epithelium was stained red and connective tissue was stained blue. Photographs were taken using a Leica DC 500 camera (Leica Microsystems).
To further confirm the efficacy of 29-mer and 20-mer on skin wound repair, skin sections from day 4 after trauma were stained using the Masson's trichrome. […] The residual epithelial defect of 29-mer and 20-mer-treated groups were 52.7±6.2% and 49.7±5.6%, respectively; as compared to control animals of 63.8±5.8% (FIG. 7B). In addition, 29-mer treatment elevated the thicknesses of hyper-proliferative epithelial (HE) tissue and granulation tissue (GT) around the edge of the wound (FIG. 7C).
Masson's trichrome was used to stain skin sections obtained from day 7 after trauma for the measurement of the wound closure.

[2] = tested on: basal cells of the hyper-proliferative epithelium; test: Cell replication at basal layer of HE tissue at day 4 post skin wounding, BrdU immunohistochemistry; assay type: in vivo, C57L/B6 mice; conditions: day 4 of skin ointment treatment; BrdU i.p. 3 hours before euthanasia; control wound 30.8±8.1%
Excerpt: FIGS. 9A and 9B illustrate histological analysis of cell replication at day 4 post-skin wounding. FIG. 9A provides photographs in which specimens were immunehistologically stained with BrdU to observe DNA replication (deep brown color) and counterstained with hematoxylin to observe nuclei. […] (Original magnification, ×200). FIG. 9B is a histogram illustrating numbers of BrdU-positive cells at basal layer of HE tissue. A labeling index (%) was computed as the number of labeled cells divided by the total number of cells at basal layer of HE tissue. *P<0.05 versus control wound.
2×10^5 limbal cells (the 1st passage) were seeded at a slide coated with FNC COATING MIX® solution (Athena Enzyme Systems, Baltimore, Md.) and incubated with a culture medium for one day. BrdU (final, 10 μM) was added to the culture for 2 hours. After being fixed with 4% paraformaldehyde, cells were exposed to cold methanol for 2 minutes, and then treated with 1 N HCl at RT for 1 hour before performing immunofluorescence. For animal study, BrdU was reconstituted in DMSO as stock (80 mM). 10 μl of BrdU mixed with 90 μl of PBS was intraperitoneally injected into mouse 3 hours prior to euthanasia. DNA synthesis was assessed by BrdU labeling with anti-BrdU antibodies.
as §1
To investigate whether skin resurfacing process, which involves cell replication, is accelerated by 29-mer, Mo 29-mer, 20-mer, or Mo 20-mer, wounds were treated with skin ointment containing 29-mer, Mo 29-mer, 20-mer, or Mo 20-mer for 4 days, and then mice were intraperitoneally injected with BrdU for further 3 hours before euthanized. […] This observation was consistent with the thicker HE tissue treated with 29-mer or 20-mer.

Row | Sequence | area of GT (granulation tissue), folds over the control group [1] [folds] | area of HE tissue, folds over that of the control group [1] [folds] | residual epithelial defect, Masson's trichrome sections [1] [%] | residual epithelial defects, Masson's trichrome sections [1] [%] | BrdU-positive cells at basal layer of HE tissue, labeling index [2] [%]
1 | SLGAEQRTESIIHRALYYDL [20-mer, synthetic peptide identical to residues 11-30 of the 39-mer] | 1.37±0.17 | 1.32±0.21 | 49.7±5.6 | 20.8±6.1 | 53.1±6.5
2 | SLGAEQRTESIIHRALYYDLISSPDIHGT [29-mer, short synthetic PEDF peptide derived from the 39-mer] | 1.45±0.23 | 1.41±0.25 | 52.7±6.2 | 17.9±3.3 | 47.9±5.0
3 | SLGAEHRTESVIHRALYYDL [Mo 20-mer, synthetic peptide derived from mouse PEDF] |  |  |  |  | 49.2±4.3
4 | SLGAEHRTESVIHRALYYDLITNPDIHST [Mo 29-mer, synthetic peptide derived from mouse PEDF] |  |  |  | 17.2±7.3 | 52.5±2.5
